This passage reports Emax and EC50 results from US20250002507A1, “7,8-DIHYDRO-5H-1,6-NAPHTHYRIDINE DERIVATIVES AS POSITIVE ALLOSTERIC MODULATORS OF THE MUSCARINIC ACETYLCHOLINE RECEPTOR M4 FOR TREATING NEUROLOGICAL AND PSYCHIATRIC DISORDERS” (Vanderbilt University, priority 2021, published 2025).

This experiment deals with T1, Human M4 (Homo sapiens, UniProt P08173).
T1 construct: expressed in transfected cells
T1 sequence (P08173 1-479): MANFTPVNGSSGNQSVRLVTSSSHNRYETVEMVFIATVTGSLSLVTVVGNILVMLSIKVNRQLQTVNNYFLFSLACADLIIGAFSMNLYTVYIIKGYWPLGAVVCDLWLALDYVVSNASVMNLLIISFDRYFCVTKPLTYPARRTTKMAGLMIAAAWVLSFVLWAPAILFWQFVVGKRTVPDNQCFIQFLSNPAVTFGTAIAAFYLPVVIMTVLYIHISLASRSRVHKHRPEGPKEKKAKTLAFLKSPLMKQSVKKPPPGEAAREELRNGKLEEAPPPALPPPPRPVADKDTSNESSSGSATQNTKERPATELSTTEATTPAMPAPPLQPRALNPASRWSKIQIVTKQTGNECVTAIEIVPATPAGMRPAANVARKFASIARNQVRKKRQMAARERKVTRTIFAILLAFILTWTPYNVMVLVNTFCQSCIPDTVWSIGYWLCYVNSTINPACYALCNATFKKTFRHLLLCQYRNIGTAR
Put plainly: mAChR M4 cell-based functional assay (calcium flux, potentiation of EC20 acetylcholine response), hM4-Gqi5 CHO-K1 cells. The settings on record: for Emax at 30 µM: CHO-K1, % ACh maximum at 30 μM, human M4, read-out: Emax; for EC50: hM4-Gqi5 CHO-K1 cells, calcium flux, PAM of EC20 acetylcholine, read-out: Human M4 EC50. The gist of the method: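 Positive allosteric modulation was scored as a concentration-dependent rise in the response to an EC20 dose of acetylcholine, added 144 s after the compound. Human M4-Gqi5 CHO-K1 cells carried Fluo-4 dye, and compounds ran as 11-point, 3-fold dilution series. EC50 and Emax came from four-parameter logistic fits of the FDSS fluorescence-ratio traces.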

Take `Cc1nn(C)cc1-c1cnc2c(c1)CN(c1nn3c(C)nnc3c(C)c1C)CC2` [Compound 88, 3-(1,3-dimethylpyrazol-4-yl)-6-(3,7,8-trimethyl-[1,2,4]triazolo[4,3-b]pyridazin-6-yl)-7,8-dihydro-5H-1,6-naphthyridine]: the Emax at 30 µM is 97% and the concentration giving a half-maximal response (EC50) was 195 nM.
Taken in the same sequence, the figures for `Cc1c(N2CCc3ncc(-c4cnn(CC5CC5)c4)cc3C2)nn2c(C)nnc2c1C` [Compound 89, 3-[1-(cyclopropylmethyl)pyrazol-4-yl]-6-(3,7,8-trimethyl-[1,2,4]triazolo[4,3-b]pyridazin-6-yl)-7,8-dihydro-5H-1,6-naphthyridine] were 91% and 291 nM.
As for `Cc1c(N2CCc3ncc(-c4cncs4)cc3C2)nn2c(C)nnc2c1C` [Compound 90, 5-[6-(3,7,8-trimethyl-[1,2,4]triazolo[4,3-b]pyridazin-6-yl)-7,8-dihydro-5H-1,6-naphthyridin-3-yl]thiazole], the Emax at 30 µM was found to be 101% and the EC50 came to 269 nM.
In the case of `Cc1c(N2CCc3ncc(Nc4cc(F)cc(F)c4F)cc3C2)nn2c(C(F)(F)F)nnc2c1C` [Compound 91, 6-[7,8-dimethyl-3-(trifluoromethyl)-[1,2,4]triazolo[4,3-b]pyridazin-6-yl]-N-(2,3,5-trifluorophenyl)-7,8-dihydro-5H-1,6-naphthyridin-3-amine], the Emax at 30 µM worked out at 106% and the concentration for a half-maximal effect (EC50) was found to be 1790 nM.
For `Cc1noc(C)c1-c1cnc2c(c1)CN(c1nn3c(C(F)(F)F)nnc3c(C)c1C)CC2` [Compound 92, 4-[6-[7,8-dimethyl-3-(trifluoromethyl)-[1,2,4]triazolo[4,3-b]pyridazin-6-yl]-7,8-dihydro-5H-1,6-naphthyridin-3-yl]-3,5-dimethyl-isoxazole] the same measures were 79% and 199 nM.
For `Cc1nn(C)c(C)c1-c1cnc2c(c1)CN(c1nn3c(C(F)(F)F)nnc3c(C)c1C)CC2` [Compound 93, 6-[7,8-dimethyl-3-(trifluoromethyl)-[1,2,4]triazolo[4,3-b]pyridazin-6-yl]-3-(1,3,5-trimethylpyrazol-4-yl)-7,8-dihydro-5H-1,6-naphthyridine] the same measures were 93% and 173 nM.
For `Cc1nn(C)cc1-c1cnc2c(c1)CN(c1nn3c(C(F)(F)F)nnc3c(C)c1C)CC2` [Compound 94, 3-(1,3-dimethylpyrazol-4-yl)-6-[7,8-dimethyl-3-(trifluoromethyl)-[1,2,4]triazolo[4,3-b]pyridazin-6-yl]-7,8-dihydro-5H-1,6-naphthyridine] the same measures were 100% and 175 nM.
For the compound `Cc1c(N2CCc3ncc(-c4cnn(CC5CC5)c4)cc3C2)nn2c(C(F)(F)F)nnc2c1C` [Compound 95, 3-[1-(cyclopropylmethyl)pyrazol-4-yl]-6-[7,8-dimethyl-3-(trifluoromethyl)-[1,2,4]triazolo[4,3-b]pyridazin-6-yl]-7,8-dihydro-5H-1,6-naphthyridine], the maximum response (Emax) at 30 µM was 90% and the EC50 worked out at 496 nM.
With `Cc1c(N2CCc3ncc(-c4cncs4)cc3C2)nn2c(C(F)(F)F)nnc2c1C` [Compound 96, 5-[6-[7,8-dimethyl-3-(trifluoromethyl)-[1,2,4]triazolo[4,3-b]pyridazin-6-yl]-7,8-dihydro-5H-1,6-naphthyridin-3-yl]thiazole], the maximal response (Emax) at 30 µM worked out at 97% and the EC50 was determined as 106 nM.
For `Cc1c(N2CCc3ncc(-c4cnn(C5CCCC5)c4)cc3C2)nn2cnnc2c1C` [Compound 97, 3-(1-cyclopentylpyrazol-4-yl)-6-(7,8-dimethyl-[1,2,4]triazolo[4,3-b]pyridazin-6-yl)-7,8-dihydro-5H-1,6-naphthyridine] the same measures were 87% and 198 nM.
Regarding `Cc1c(N2CCc3ncc(-c4cnn(CC(F)(F)F)c4)cc3C2)nn2cnnc2c1C` [Compound 98, 6-(7,8-dimethyl-[1,2,4]triazolo[4,3-b]pyridazin-6-yl)-3-[1-(2,2,2-trifluoroethyl)pyrazol-4-yl]-7,8-dihydro-5H-1,6-naphthyridine], the Emax at 30 µM came to 102% and the EC50 amounted to 332 nM.
For the compound `Cc1c(N2CCc3ncc(-c4cnn(C5CCC5)c4)cc3C2)nn2cnnc2c1C` [Compound 99, 3-(1-cyclobutylpyrazol-4-yl)-6-(7,8-dimethyl-[1,2,4]triazolo[4,3-b]pyridazin-6-yl)-7,8-dihydro-5H-1,6-naphthyridine], the Emax at 30 µM is 95% and the EC50 is 276 nM.
In the case of `CCn1cc(-c2cnc3c(c2)CN(c2nn4cnnc4c(C)c2C)CC3)cn1` [Compound 100, 6-(7,8-dimethyl-[1,2,4]triazolo[4,3-b]pyridazin-6-yl)-3-(1-ethylpyrazol-4-yl)-7,8-dihydro-5H-1,6-naphthyridine], the Emax at 30 µM was found to be 101% and the 50% effective concentration (EC50) amounted to 249 nM.
For `Cc1c(N2CCc3ncc(-c4cc[nH]c4)cc3C2)nn2cnnc2c1C` [Compound 101, 6-(7,8-dimethyl-[1,2,4]triazolo[4,3-b]pyridazin-6-yl)-3-(1H-pyrrol-3-yl)-7,8-dihydro-5H-1,6-naphthyridine] the same measures were 98% and 389 nM.
For `Cc1ccncc1-c1cnc2c(c1)CN(c1nn3cnnc3c(C)c1C)CC2` [Compound 102, 6-(7,8-dimethyl-[1,2,4]triazolo[4,3-b]pyridazin-6-yl)-3-(4-methyl-3-pyridyl)-7,8-dihydro-5H-1,6-naphthyridine] the same measures were 94% and 105 nM.
Take `Cc1cc2nncn2nc1N1CCc2ncc(-c3cncs3)cc2C1` [Compound 103, 5-[6-(7-methyl-[1,2,4]triazolo[4,3-b]pyridazin-6-yl)-7,8-dihydro-5H-1,6-naphthyridin-3-yl]thiazole]: the Emax at 30 µM is 97% and the concentration giving a half-maximal response (EC50) came out at 232 nM.
For `Cc1cc2nncn2nc1N1CCc2ncc(-c3c(C)nn(C)c3C)cc2C1` [Compound 104, 6-(7-methyl-[1,2,4]triazolo[4,3-b]pyridazin-6-yl)-3-(1,3,5-trimethylpyrazol-4-yl)-7,8-dihydro-5H-1,6-naphthyridine] the same measures were 91% and 398 nM.
Regarding `Cc1cc2nncn2nc1N1CCc2ncc(-c3c(C)noc3C)cc2C1` [Compound 105, 3,5-dimethyl-4-[6-(7-methyl-[1,2,4]triazolo[4,3-b]pyridazin-6-yl)-7,8-dihydro-5H-1,6-naphthyridin-3-yl]isoxazole], the Emax at 30 µM amounted to 86% and the EC50 turned out to be 325 nM.
As for `Cc1cc2nncn2nc1N1CCc2ncc(-c3cnn(C4CCCCC4)c3)cc2C1` [Compound 106, 3-(1-cyclohexylpyrazol-4-yl)-6-(7-methyl-[1,2,4]triazolo[4,3-b]pyridazin-6-yl)-7,8-dihydro-5H-1,6-naphthyridine], the Emax at 30 µM was 59% and the EC50 amounted to 234 nM.
Regarding `Cc1cc2nccn2nc1N1CCc2ncc(-c3cncs3)cc2C1` [Compound 107, 5-[6-(7-methylimidazo[1,2-b]pyridazin-6-yl)-7,8-dihydro-5H-1,6-naphthyridin-3-yl]thiazole], the Emax at 30 µM came to 80% and the EC50 is 113 nM.
